Measurements reported in patent publication US8937096B2, “Use of benzo-fused heterocyle sulfamide derivatives for the treatment of mania and bipolar disorder” (priority 2005, dated 2015).

How the values were obtained:
[1] = system: hippocampal kindled seizures; conditions: rat, in vivo; cited from earlier work
[2] = system: amygdala kindled seizures; conditions: i.p.; cited from earlier work
[3] = system: stressed and non-stressed animals; assay: Resident/Intruder Assay (Chronic Social Stress Assay); assay type: in vivo; parameters: Locomotor Mean ± SD / Rearing Mean ± SD / Sniffing Down Mean ± SD / Sniffing Up Mean ± SD: unit not given here; conditions: 10 mg/kg p.o.
Description: The behavioral resident/intruder assay is used to screen compounds for anti-depressant-like activity.

Wistar rats = assay: Chronic Mild Stress Model (Chronic); assay type: in vivo, rat; conditions: stressed animals; i.p. once daily
Description: In the chronic mild stress (CMS) model rats subjected to a variety of mild stressors for a prolonged period of time show, among other behavioral, biochemical and physiological impairments, a substantial decrease in their responsiveness to rewarding stimuli. This deficit is usually monitored by a decrease in the consumption of the 1% sucrose solution, but can also be seen in other tests, such as place preference conditioning or intracranial self-stimulation. Since the subsensitivity to reward appears to reflect anhedonia (inability to experience pleasure), which is a core symptom of major depressive disorders, the CMS procedure may serve as a suitable research tool in studies into the mechanisms of antidepressant action.
Male Wistar rats were brought into the laboratory two months before the start of the experiment. Except as described below, the animals were singly housed with food and water freely available, and were maintained on a 12-h light/dark and in a constant temperature (22±2° C.) and humidity (50±5%) conditions.
The animals were first trained to consume a 1% sucrose solution; training consisted of eight 1 h baseline tests in which sucrose was presented, in the home cage, following 14 h food and water deprivation; the sucrose intake was measured by weighing pre-weighed bottles containing the sucrose solution, at the end of the test. Subsequently, sucrose consumption was monitored, under similar conditions, at weekly intervals throughout the whole experiment.
On the basis of their sucrose intakes in the final baseline test, the animals were divided into two matched groups. One group of animals was subjected to the chronic mild stress procedure for a period of 7 consecutive weeks. […]
All results obtained in this study were analyzed by multiple analyses of variance with three between-subjects factors (stress/control, drug treatments and successive sucrose tests). […]

[4] = system: hippocampal kindled seizures; assay: Rat Hippocampal Kindling Test (Interruption of Kindled State); assay type: in vivo; conditions: reference drugs; suppression at doses associated with toxicity
Description: In the present rapid hippocampal kindling model adult male Sprague-Dawley rats (300-400 g) were surgically implanted with bipolar electrodes placed in the hippocampus. […] One week later, the rats received 2-3 supra-threshold stimulations delivered every 30 min before treatment with test compound, to ensure stability of the behavioral seizure stage and after-discharge duration. Fifteen minutes after the last stimulation, a single dose of vehicle or test compound was administered i.p. (intraperitoneally). After 15 min, each rat was then stimulated every 30 min for 3 to 4 h. After each stimulation, individual seizure scores and after-discharge durations were recorded. The group mean±SEM were calculated for each parameter. Eight rats per dose and a minimum of four doses were used to establish an ED50 value. Efficacy was measured as the ability of a compound to modify the seizure score (severity of spread) and after-discharge duration (ADD; excitability) of the generalized seizures.
Thus, according to the theories presented in current literature (Ghaemi, S. N., Boiman, E. E., and Goodwin, F. K., Soc. of Bio. Psychiatry, (1999), vol. 45, pp 137-144; Stoll, A. L., and Severus, W. E., Harvard Rev. Psychiatry, July/August (1996), Vol. 4, No. 2, pp 77-89) a decrease in seizure score and/or ADD may also be predictive of the ability of a test compound to treat the cycling associated with bipolar disorder.

[5] = Median toxic dose (TD50) / toxic doses of Compound #8 and reference drugs; conditions: rat, in vivo

## Nc1nnc(-c2cccc(Cl)c2Cl)c(N)n1 [lamotrigine]
[1]
  protection against hippocampal kindled seizures: unable to protect
[2]
  ADD reduced by: 62%
  ED50 (amygdala kindled seizures): 25 mg/kg
  amygdala kindled seizure score: ~2

## CN(C)CCCN1c2ccccc2CCc2ccccc21 [Imipramine, imipramine, reference compound]
[3]; non-stressed
  Forced Swim Test: Immobility during 5 min: Week 5 Mean ± SD: 125.3 ± 50.1
  Sucrose Intake Mean ± SD Week 3: 87.9 ± 2.7
  Sucrose Intake Mean ± SD Week 4: 89.7 ± 5.3
  Sucrose Intake Mean ± SD Week 5: 91.0 ± 3.7
[3]; non-stressed, week 1
  Locomotor Mean ± SD: 8162.8 ± 929.9
  Rearing Mean ± SD: 51.5 ± 12.6
  Sniffing Down Mean ± SD: 25.8 ± 4.9
[3]; non-stressed, week 5
  Rearing Mean ± SD: 42.1 ± 2.9
  Sniffing Down Mean ± SD: 26.4 ± 5.2
  Sniffing Up Mean ± SD: 37.5 ± 2.1
[3]; stressed
  Forced Swim Test: Immobility during 5 min: Week 5 Mean ± SD: 157.5 ± 71.6
  Sucrose Intake Mean ± SD Week 3: 70.5 ± 19.5
  Sucrose Intake Mean ± SD Week 4: 78.3 ± 15.1
  Sucrose Intake Mean ± SD Week 5: 73.6 ± 19.4
[3]; stressed, week 1
  Locomotor Mean ± SD: 6037.8 ± 1382.8
  Rearing Mean ± SD: 30 ± 9.5
  Sniffing Down Mean ± SD: 14.4 ± 4.4
  Sniffing Up Mean ± SD: 27.5 ± 7.9
[3]; stressed, week 5
  Locomotor Mean ± SD: 5642.8 ± 998.6
  Rearing Mean ± SD: 27.8 ± 7.4
  Sniffing Down Mean ± SD: 17.3 ± 3.4
  Sniffing Up Mean ± SD: 24.3 ± 5.1
Wistar rats
  treatment time after which increases in sucrose intake in stressed animals reached statistical significance vs Week 0: four weeks

## NS(=O)(=O)NCC1CCc2ccccc2O1 (stereo not drawn)
other
  melting point: 100 to 101 °C

## CCCC(CCC)C(=O)O [Valproic acid, reference compound]
[4]
  seizure activity in the hippocampal kindling model: significantly suppressed seizure activity
[5]
  toxic doses: > 300 mg/kg
